Results taken from patent publication US12281363B2, “Methods for detecting antiviral-drug resistant virus” (Secretary of State for Health and Social Care, priority 2018, dated 2025).
Like-named read-outs stand apart in the source and are kept apart here.

Tested on: HSV-1
Assay: Plaque reduction assay, HSV-1 clinical isolates on Vero cells
Format: cell-based
Details: Human alphaherpesvirus 1, Vero
Excerpt: Viral isolates were used to infect a sub-confluent monolayer of Vero cells at a concentration of 75 or 50 plaque forming units (PFU) per well for HSV-1 and HSV-2, respectively. […] CMC medium typically used to create a semisolid interface and prevents indiscrimate viral spreading. Other materials (e.g. agar) may also be used to create this interface.
Cells were fixed with 10% formalin and stained with crystal violet before enumeration of the plaques (microscopic observation or use of fluorescent antibodies for detection is also suitable). The data obtained from these experiments were then expressed as percent inhibition of viral infectivity relative to the no drug control.
Definitions of phenotypic drug susceptibility classification as sensitive or resistant were as follows: ACV, <3 μM or >40 μM; PCV, <10 μM or >40 μM; CDV, <24 μM or >30 μM; FOS, <250 μM or >400 μM; and ACV, <6.5 μM or >40 μM; PCV, <38 μM or >40 μM; FOS, <250 μM or >400 μM for HSV-1 and HSV-2, respectively. Any IC50 values falling in between these sensitive and resistant cut-offs were reported as intermediate resistance.
The phenotype (i.e. reactivity to a drug) of the virus was characterised by the plaque reduction assay as described above.

O=C(O)P(=O)(O)O [Foscarnet, foscarnet]
IC50 (isolate HPG033, HSV-1 TK I358L (1072A>C), also TK T287M, read-out: Drug susceptibility (IC50 value)): 88.3 µM
IC50 (isolate HPG033, HSV-1 TK I358L (1072A>C), also TK T287M, read-out: Drug susceptibility Foscarnet (FOS)): < 250 µM
IC50 (isolate HPG033, HSV-1 pol N1046T (3137A>C), also TK T287M, pol A1169T, read-out: Drug susceptibility (IC50 value)): 88.3 µM
IC50 (isolate HPG033, HSV-1 pol N1046T (3137A>C), also TK T287M, pol A1169T, read-out: Drug susceptibility Foscarnet (FOS)): < 250 µM
IC50 (isolate HPG035, HSV-1 pol S239L (716C>T), also pol S724N, read-out: Drug susceptibility (IC50 value)): 701 µM
IC50 (isolate HPG035, HSV-1 pol S239L (716C>T), also pol S724N, read-out: Drug susceptibility Foscarnet (FOS)): > 400 µM
IC50 (isolate HPG037, HSV-1 TK L69M (205>A), also TK Y239H, read-out: Drug susceptibility Foscarnet (FOS)): < 250 µM
IC50 (isolate HPG037, HSV-1 TK R256W (766C>T), read-out: Drug susceptibility (IC50 value)): 80 µM
IC50 (isolate HPG037, HSV-1 TK R256W (766C>T), read-out: Drug susceptibility Foscarnet (FOS)): < 250 µM
IC50 (isolate HPG037, HSV-1 TK Y239H (715T>C), read-out: Drug susceptibility (IC50 value)): 80 µM
IC50 (isolate HPG037, HSV-1 TK Y239H (715T>C), read-out: Drug susceptibility Foscarnet (FOS)): < 250 µM
IC50 (isolate HPG039, HSV-1 TK 85* or H58fs (169delC, 170delC, 171delC, or 172delC), read-out: Drug susceptibility (IC50 value)): 59.8 µM
IC50 (isolate HPG039, HSV-1 TK 85* or H58fs (169delC, 170delC, 171delC, or 172delC), read-out: Drug susceptibility Foscarnet (FOS)): < 250 µM
IC50 (isolate HPG040, HSV-1 pol S911N (2732G>A), also TK deletion (C) nt 896-900, pol A1169T, read-out: Drug susceptibility (IC50 value)): 137 µM
IC50 (isolate HPG040, HSV-1 pol S911N (2732G>A), also TK deletion (C) nt 896-900, pol A1169T, read-out: Drug susceptibility Foscarnet (FOS)): < 250 µM
IC50 (isolate HPG041, HSV-1 pol S911N (2732G>A), also pol A1169T, read-out: Drug susceptibility (IC50 value)): 89.5 µM
IC50 (isolate HPG041, HSV-1 pol S911N (2732G>A), also pol A1169T, read-out: Drug susceptibility Foscarnet (FOS)): < 250 µM
IC50 (isolate HPG042, HSV-1 pol A972V (2915C>T), also TK deletion (C) nt 881-885, pol A1169T, read-out: Drug susceptibility (IC50 value)): 60.7 µM
IC50 (isolate HPG042, HSV-1 pol A972V (2915C>T), also TK deletion (C) nt 881-885, pol A1169T, read-out: Drug susceptibility Foscarnet (FOS)): < 250 µM
IC50 (isolate HPG042, HSV-1 pol G22R (64G>A), also TK deletion (C) nt 881-885, pol A1169T, read-out: Drug susceptibility (IC50 value)): 60.7 µM
IC50 (isolate HPG042, HSV-1 pol G22R (64G>A), also TK deletion (C) nt 881-885, pol A1169T, read-out: Drug susceptibility Foscarnet (FOS)): < 250 µM
IC50 (isolate HPG043, HSV-1 TK 183* (437_438insA), read-out: Drug susceptibility (IC50 value)): 69 µM
IC50 (isolate HPG043, HSV-1 TK 183* (437_438insA), read-out: Drug susceptibility Foscarnet (FOS)): < 250 µM
IC50 (isolate HPG045, HSV-1 TK L49R (146T>G), read-out: Drug susceptibility (IC50 value)): 75 µM
IC50 (isolate HPG045, HSV-1 TK L49R (146T>G), read-out: Drug susceptibility Foscarnet (FOS)): < 250 µM
IC50 (isolate HPG045, HSV-1 pol L419I (1255C>A), also TK L49R, pol A1169T, read-out: Drug susceptibility (IC50 value)): 75 µM
IC50 (isolate HPG045, HSV-1 pol L419I (1255C>A), also TK L49R, pol A1169T, read-out: Drug susceptibility Foscarnet (FOS)): < 250 µM
IC50 (isolate HPG046, HSV-1 TK I166N (497T>A), read-out: Drug susceptibility (IC50 value)): < 50 µM
IC50 (isolate HPG046, HSV-1 TK I166N (497T>A), read-out: Drug susceptibility Foscarnet (FOS)): < 250 µM
IC50 (isolate HPG047, HSV-1 pol E680 (2039A>C), also TK deletion (C) nt 548-553, pol A1169T, read-out: Drug susceptibility Foscarnet (FOS)): < 250 µM
IC50 (isolate HPG050, HSV-1 TK Q34* (100C>T), read-out: Drug susceptibility (IC50 value)): 169 µM
IC50 (isolate HPG050, HSV-1 TK Q34* (100C>T), read-out: Drug susceptibility Foscarnet (FOS)): < 250 µM
IC50 (isolate HPG051, HSV-1 pol D83A (248A>C), also TK R176stop, read-out: Drug susceptibility (IC50 value)): 82.6 µM
IC50 (isolate HPG051, HSV-1 pol D83A (248A>C), also TK R176stop, read-out: Drug susceptibility Foscarnet (FOS)): < 250 µM
IC50 (isolate HPG052, HSV-1 TK Q34* (100C>T), read-out: Drug susceptibility (IC50 value)): 76.9 µM
IC50 (isolate HPG052, HSV-1 TK Q34* (100C>T), read-out: Drug susceptibility Foscarnet (FOS)): < 250 µM
IC50 (isolate HPG053, HSV-1 pol L802R + A834S (2405T>G, 2500G>T), also TK R176W, read-out: Drug susceptibility Foscarnet (FOS)): > 400 µM
IC50 (isolate HPG053, HSV-1 pol S911N (2732G>A), also TK R176W, pol A1169T, read-out: Drug susceptibility (IC50 value)): 626 µM
IC50 (isolate HPG053, HSV-1 pol S911N (2732G>A), also TK R176W, pol A1169T, read-out: Drug susceptibility Foscarnet (FOS)): > 400 µM
IC50 (isolate HPG054, HSV-1 pol E992K (2974G>A), also TK insert (G) nt 430-436, pol A1169T, read-out: Drug susceptibility (IC50 value)): 52.9 µM
IC50 (isolate HPG054, HSV-1 pol E992K (2974G>A), also TK insert (G) nt 430-436, pol A1169T, read-out: Drug susceptibility Foscarnet (FOS)): < 250 µM
IC50 (isolate HPG055, HSV-1 TK V204G (611T>G), also pol A1169AT, read-out: Drug susceptibility (IC50 value)): < 50 µM
IC50 (isolate HPG055, HSV-1 TK V204G (611T>G), also pol A1169AT, read-out: Drug susceptibility Foscarnet (FOS)): < 250 µM
IC50 (read-out: Drug susceptibility (IC50 value), isolate HPG005, HSV-1 TK A192T (574G>A)): < 50 µM
IC50 (read-out: Drug susceptibility (IC50 value), isolate HPG006, HSV-1 pol G121S (361G>A), also a TK resistance mutation (footnote a)): 115 µM
IC50 (read-out: Drug susceptibility (IC50 value), isolate HPG012, HSV-1 pol G985E (2954G>A), also TK A93V): 92.1 µM
IC50 (read-out: Drug susceptibility (IC50 value), isolate HPG016, HSV-1 pol A1169T (3505G>A)): 154 µM
IC50 (read-out: Drug susceptibility (IC50 value), isolate HPG037, HSV-1 TK L69M (205>A), also TK Y239H): 80 µM
IC50 (read-out: Drug susceptibility (IC50 value), isolate HPG042, HSV-1 TK frameshift (881delC to 885delC)): 60.7 µM
IC50 (read-out: Drug susceptibility (IC50 value), isolate HPG047, HSV-1 pol E680 (2039A>C), also TK deletion (C) nt 548-553, pol A1169T): 92.4 µM
IC50 (read-out: Drug susceptibility Foscarnet (FOS), isolate HPG005, HSV-1 TK A192T (574G>A)): < 250 µM
IC50 (read-out: Drug susceptibility Foscarnet (FOS), isolate HPG006, HSV-1 pol G121S (361G>A), also a TK resistance mutation (footnote a)): < 250 µM
IC50 (read-out: Drug susceptibility Foscarnet (FOS), isolate HPG012, HSV-1 pol G985E (2954G>A), also TK A93V): < 250 µM
IC50 (read-out: Drug susceptibility Foscarnet (FOS), isolate HPG016, HSV-1 pol A1169T (3505G>A)): < 250 µM
IC50 (read-out: Drug susceptibility Foscarnet (FOS), isolate HPG042, HSV-1 TK frameshift (881delC to 885delC)): < 250 µM
